The target of experiment [1] is T1, Siglec-2 (CD22) (Homo sapiens, UniProt P20273).
T1 sequence (P20273 20-847): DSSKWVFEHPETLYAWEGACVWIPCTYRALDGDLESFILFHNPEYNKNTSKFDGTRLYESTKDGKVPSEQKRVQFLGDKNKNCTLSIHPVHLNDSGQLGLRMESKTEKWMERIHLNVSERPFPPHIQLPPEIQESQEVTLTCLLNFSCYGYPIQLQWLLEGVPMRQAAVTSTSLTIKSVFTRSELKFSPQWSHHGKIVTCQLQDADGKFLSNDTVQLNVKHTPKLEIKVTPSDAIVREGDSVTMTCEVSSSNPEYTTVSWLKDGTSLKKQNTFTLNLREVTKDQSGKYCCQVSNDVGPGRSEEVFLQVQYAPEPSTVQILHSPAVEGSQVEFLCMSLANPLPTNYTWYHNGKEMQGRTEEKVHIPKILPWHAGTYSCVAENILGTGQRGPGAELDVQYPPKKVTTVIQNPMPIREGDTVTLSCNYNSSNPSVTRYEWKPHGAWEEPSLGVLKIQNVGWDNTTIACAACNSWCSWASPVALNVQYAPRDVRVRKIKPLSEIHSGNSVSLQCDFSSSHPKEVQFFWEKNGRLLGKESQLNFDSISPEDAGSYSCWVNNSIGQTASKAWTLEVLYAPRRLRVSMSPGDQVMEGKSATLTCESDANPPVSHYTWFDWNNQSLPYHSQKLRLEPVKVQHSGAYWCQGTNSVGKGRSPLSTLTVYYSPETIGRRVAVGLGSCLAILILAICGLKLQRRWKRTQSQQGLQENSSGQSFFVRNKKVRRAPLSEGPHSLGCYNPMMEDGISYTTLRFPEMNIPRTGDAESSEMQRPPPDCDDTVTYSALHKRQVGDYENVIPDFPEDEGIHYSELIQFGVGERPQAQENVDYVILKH
Nature of the experiment: new affinity assay: displacement of biotinylated compound 155 from sialidase-treated Daudi cells, FACS with streptavidin-PE. The format is binding. On the set-up: endogenous in cells; host or cells: Daudi (human B-cell lymphoma line). As to conditions: for rIP: Table II, rIP values set relative to compound 38, Daudi cells, displacement of compound 155; for rIP (New assay): relative Inhibitory Potency from IC50, human B-cell lymphoma line Daudi, compound 38 = 1. A digest of the protocol:
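Sialidase-treated Daudi cells preincubated on ice 15 min with inhibitor (1 mM to 1×10^−7 mM), then 20 min with biotinylated probe (4 μM as added); bound probe detected by streptavidin-PE flow cytometry. IC50 converted to relative inhibitory potency (rIP) against a reference substance.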

The target of experiment [2] is T1, Siglec-2 (CD22). In words: known affinity assay (Bock et al., Methods Mol. Biol. 2006), 'Literature assay'. It is filed as binding. As to conditions: relative Inhibitory Potency; BPC Neu5Ac = 1. As to the method: The affinity of a number of dimers was measured using a known assay (Bock et al., Methods Mol. Biol. 2006, 347, 359-375). […] Exact values were undeterminable, however, owing to fluctuating values. In order to be able to determine the affinity of the new derivatives reliably, a new assay was drawn up. For this assay, compound 155 was prepared.

Consider `CC(=O)N[C@H]1[C@H]([C@H](O)[C@H](O)CO)O[C@@](OCCCSCCNC(=O)c2ccc(C(=O)NCCSCCCO[C@]3(C(=O)[O-])C[C@H](O)[C@@H](NC(C)=O)[C@H]([C@H](O)[C@H](O)CO)O3)cc2)(C(=O)[O-])C[C@@H]1O.[Na+].[Na+]` [Compound 38], for which, on Siglec-2 (CD22) [1], the rIP worked out at 1 and the “rIP (New assay)” value was 1. Further, on Siglec-2 (CD22) [2], the “rIP (Literature assay)” value was ~1-3.

In the case of `CC(=O)N[C@H]1[C@H]([C@H](O)[C@H](O)CNC(=O)c2ccc(-c3ccccc3)cc2)O[C@@](OCCCSCCNC(=O)c2ccc(C(=O)NCCSCCCO[C@]3(C(=O)[O-])C[C@H](O)[C@@H](NC(C)=O)[C@H]([C@H](O)[C@H](O)CNC(=O)c4ccc(-c5ccccc5)cc4)O3)cc2)(C(=O)[O-])C[C@@H]1O.[Na+].[Na+]` [Compound 21], on Siglec-2 (CD22) [1], the rIP is 2979 and the “rIP (New assay)” value turned out to be 2979. For the same compound, on Siglec-2 (CD22) [2], the “rIP (Literature assay)” value is greater than 2000.

Consider `CO[C@]1(C(=O)[O-])C[C@H](O)[C@@H](NC(C)=O)[C@H]([C@H](O)[C@H](O)CNC(=O)c2ccc(-c3ccccc3)cc2)O1.[Na+]` [BPC Neu 5Ac, reference compound], for which the “rIP (Literature assay)” value on Siglec-2 (CD22) [2] was 1.

Consider `CC(=O)N[C@H]1[C@H]([C@H](O)[C@H](O)CNC(=O)c2ccc(-c3ccc(C)cc3)cc2)O[C@@](OCCCSCCNC(=O)c2ccc(C(=O)NCCSCCCO[C@]3(C(=O)[O-])C[C@H](O)[C@@H](NC(C)=O)[C@H]([C@H](O)[C@H](O)CNC(=O)c4ccc(-c5ccc(C)cc5)cc4)O3)cc2)(C(=O)[O-])C[C@@H]1O.[Na+].[Na+]` [Compound 76], for which the rIP at Siglec-2 (CD22) [1] came to 188.

The compound `CC(=O)N[C@H]1[C@H]([C@H](O)[C@H](O)CNC(=O)c2ccc(-c3ccccc3)cc2)O[C@](C(=O)[O-])(n2cc(CCCCNC(=O)c3ccc(C(=O)NCCCCc4cn([C@]5(C(=O)[O-])C[C@H](O)[C@@H](NC(C)=O)[C@H]([C@H](O)[C@H](O)CNC(=O)c6ccc(-c7ccccc7)cc6)O5)nn4)cc3)nn2)C[C@@H]1O.[Na+].[Na+]` [Compound 110] showed a rIP on Siglec-2 (CD22) [1] of 12.

`CC(=O)N[C@H]1[C@H]([C@H](O)[C@H](O)CNC(=O)c2ccc(-c3ccccc3)cc2)O[C@@](OCCCSCCC(=O)Nc2ccc(NC(=O)CCSCCCO[C@]3(C(=O)[O-])C[C@H](O)[C@@H](NC(C)=O)[C@H]([C@H](O)[C@H](O)CNC(=O)c4ccc(-c5ccccc5)cc4)O3)cc2)(C(=O)[O-])C[C@@H]1O.[Na+].[Na+]` [Compound 39] yielded a rIP on Siglec-2 (CD22) [1] of 10760.

In turn, `CC(=O)N[C@H]1[C@H]([C@H](O)[C@H](O)CNC(=O)c2ccc(-c3ccccn3)cc2)O[C@@](OCCCSCCNC(=O)c2ccc(C(=O)NCCSCCCO[C@]3(C(=O)[O-])C[C@H](O)[C@@H](NC(C)=O)[C@H]([C@H](O)[C@H](O)CNC(=O)c4ccc(-c5ccccn5)cc4)O3)cc2)(C(=O)[O-])C[C@@H]1O.[Na+].[Na+]` [Compound 77] gave a rIP at Siglec-2 (CD22) [1] of 95.

In turn, `CC(=O)N[C@H]1[C@H]([C@H](O)[C@H](O)CNC(=O)c2ccc(-c3ccc([N+](=O)[O-])cc3[N+](=O)[O-])c([N+](=O)[O-])c2)O[C@@](OCCCSCCNC(=O)c2ccc(C(=O)NCCSCCCO[C@]3(C(=O)[O-])C[C@H](O)[C@@H](NC(C)=O)[C@H]([C@H](O)[C@H](O)CNC(=O)c4ccc(-c5ccc([N+](=O)[O-])cc5[N+](=O)[O-])c([N+](=O)[O-])c4)O3)cc2)(C(=O)[O-])C[C@@H]1O.[Na+].[Na+]` [Compound 69] gave a rIP at Siglec-2 (CD22) [1] of 14.

These data come from patent US9260467B2, “Sialic acid dimers” (priority 2011, dated 2016).
